Source: publication PMC3944508, “Six New Tetraprenylated Alkaloids from the South China Sea Gorgonian Echinogorgia pseudossapo” (Marine Drugs, 2014)

Tests used:
Type in all cases: biochemical
[1] = biological target: T1, PDE4D (phosphodiesterase-4D) (Homo sapiens, UniProt Q08499); test: in vitro PDE inhibition assay, % inhibition at […]; settings: read-out: Inhibition (%) of Compounds at 50 μM / PDE4D
[2] = biological target: T1, PDE4D (phosphodiesterase-4D); test: in vitro PDE inhibition assay (previously reported method)
PDE5A = PDE5A (Homo sapiens, UniProt O76074); test: in vitro PDE inhibition assay, % inhibition at […]; settings: read-out: Inhibition (%) of Compounds at 50 μM / PDE5A

T1 sequence (Q08499 whole entry): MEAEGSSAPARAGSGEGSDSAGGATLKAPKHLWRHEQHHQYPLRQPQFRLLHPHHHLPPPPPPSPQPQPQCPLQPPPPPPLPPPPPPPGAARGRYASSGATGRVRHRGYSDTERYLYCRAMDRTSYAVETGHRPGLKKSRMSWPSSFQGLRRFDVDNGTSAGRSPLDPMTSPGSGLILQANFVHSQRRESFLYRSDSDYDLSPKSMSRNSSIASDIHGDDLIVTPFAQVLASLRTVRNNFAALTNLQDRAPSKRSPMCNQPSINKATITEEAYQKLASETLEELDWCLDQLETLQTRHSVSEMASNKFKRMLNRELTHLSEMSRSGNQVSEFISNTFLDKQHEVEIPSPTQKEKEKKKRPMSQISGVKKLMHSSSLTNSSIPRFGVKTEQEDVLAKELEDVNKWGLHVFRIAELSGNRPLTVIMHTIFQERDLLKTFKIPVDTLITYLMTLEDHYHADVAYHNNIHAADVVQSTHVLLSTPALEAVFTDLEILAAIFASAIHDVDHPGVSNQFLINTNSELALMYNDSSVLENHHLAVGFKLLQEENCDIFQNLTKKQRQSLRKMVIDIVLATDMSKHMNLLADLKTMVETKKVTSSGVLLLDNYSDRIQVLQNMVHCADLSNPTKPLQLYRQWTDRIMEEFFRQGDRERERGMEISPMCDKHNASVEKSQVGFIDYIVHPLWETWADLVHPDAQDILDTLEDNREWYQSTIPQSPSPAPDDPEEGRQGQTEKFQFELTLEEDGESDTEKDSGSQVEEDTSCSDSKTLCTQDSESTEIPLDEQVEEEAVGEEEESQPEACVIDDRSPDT

Compound	inhibition at 50 µM [1] [%]	IC50 [2] [µM]	inhibition at 50 µM (PDE5A) [%]
CNC(=O)c1c(N(C)C=O)ncn1C/C=C(\C)CC/C=C(\C)CC/C=C(/C)CC(=O)C=C(C)C [compound 5, malonganenone P]	75	–	–
CNC(=O)c1c(N(C)C=O)ncn1C/C=C(\C)CC/C=C(\C)CC/C=C(\C)CC(=O)C=C(C)C [compound 4, malonganenone O]	79	–	–
CNC(=O)c1c(N(C)C=O)ncn1C/C=C(\C)CC/C=C(\C)CCC/C(C)=C\C(=O)C=C(C)C [compound 6, malonganenone Q]	–	20.3	–
CC(C)=CC(=O)/C=C(\C)CCC/C(C)=C/CC/C(C)=C/Cn1cnc2c1c(=O)ncn2C [compound 3, malonganenone N]	81	–	–
CC(C)=CC(=O)C/C(C)=C/CC/C(C)=C/CC/C(C)=C/Cn1cnc2c1c(=O)ncn2C [compound 1, malonganenone L]	–	8.5	53
CC(C)=CC(=O)C/C(C)=C\CC/C(C)=C/CC/C(C)=C/Cn1cnc2c1c(=O)ncn2C [compound 2, malonganenone M]	72	–	–
